Measurements reported in ChEMBL document CHEMBL3885881, “DrugMatrix”.

Species: Rattus norvegicus
Experiment: DrugMatrix - Regimen: Daily Repeat
Format: toxicity, organism-based, Sprague-Dawley
Design: regimen Daily Repeat, gender Male, age 6-8 weeks
Settings: in vivo, po, route oral GAVAGE, vehicle .5 % CMC; for ABSOLUTE BASOPHIL / ABSOLUTE EOSINOPHIL / ABSOLUTE LYMPHOCYTE / ABSOLUTE MONOCYTE / ABSOLUTE SEGMENTED NEUTROPHIL / BASOPHIL / EOSINOPHIL / ERYTHROCYTE COUNT / HEMATOCRIT / HEMOGLOBIN / LEUKOCYTE COUNT / LYMPHOCYTE / MEAN CORPUSCULAR HEMOGLOBIN / MEAN CORPUSCULAR HEMOGLOBIN CONCENTRATION / MEAN CORPUSCULAR VOLUME / MONOCYTE / NEUTROPHIL / NUCLEATED RED BLOOD CELLS / PLATELET COUNT: tissue Blood; for ALANINE AMINOTRANSFERASE / ALBUMIN / ALKALINE PHOSPHATASE / ASPARTATE AMINOTRANSFERASE / BLOOD UREA NITROGEN / CARBON DIOXIDE / CHLORIDE / CHOLESTEROL / CREATINE PHOSPHOKINASE / CREATININE / GLUCOSE / LACTATE DEHYDROGENASE / LIPASE / PHOSPHORUS / POTASSIUM / SODIUM / TOTAL BILIRUBIN / TOTAL PROTEIN / URIC ACID: tissue Plasma
[1] = 16 mg/kg, 120 h, dose level Low, time 5 day
[2] = 94 mg/kg, 72 h, dose level High, time 3 day
[3] = 94 mg/kg, 120 h, dose level High, time 5 day

CCOC(=O)OC(C)OC1=C(C(=O)Nc2ccccn2)N(C)S(=O)(=O)c2ccccc21 (centres undefined) [AMPIROXICAM]
ABSOLUTE BASOPHIL [1]: 0 CELLS/uL
ABSOLUTE EOSINOPHIL [1]: 0 CELLS/uL
ABSOLUTE LYMPHOCYTE [1]: 8819 CELLS/uL
ABSOLUTE MONOCYTE [1]: 212 CELLS/uL
ABSOLUTE SEGMENTED NEUTROPHIL [1]: 1469 CELLS/uL
BASOPHIL [1]: 0%
EOSINOPHIL [1]: 0%
ERYTHROCYTE COUNT [1]: 5.59 x10E6/uL
HEMATOCRIT [1]: 33.9%
HEMOGLOBIN [1]: 12.8 G/DL
LEUKOCYTE COUNT [1]: 10.5 x10E3/uL
LYMPHOCYTE [1]: 84%
MEAN CORPUSCULAR HEMOGLOBIN [1]: 22.9 pg
MEAN CORPUSCULAR HEMOGLOBIN CONCENTRATION [1]: 37.77 G/DL
MEAN CORPUSCULAR VOLUME [1]: 60.67 fL
MONOCYTE [1]: 2.33%
NEUTROPHIL [1]: 13.67%
NUCLEATED RED BLOOD CELLS [1]: 0 /100WBC
PLATELET COUNT [1]: 1100 x10E3/uL
ALANINE AMINOTRANSFERASE [1]: 50.33 u/L
ALBUMIN [1]: 4.2 G/DL
ALKALINE PHOSPHATASE [1]: 430.67 u/L
ASPARTATE AMINOTRANSFERASE [1]: 70.67 u/L
BLOOD UREA NITROGEN [1]: 13.67 mg/dL
CARBON DIOXIDE [1]: 26 mmol/L
CHLORIDE [1]: 101.67 MEQ/L
CHOLESTEROL [1]: 67.67 mg/dL
CREATINE PHOSPHOKINASE [1]: 214.67 u/L
CREATININE [1]: 0.26 mg/dL
GLUCOSE [1]: 161.33 mg/dL
LACTATE DEHYDROGENASE [1]: 71.67 u/L
LIPASE [1]: 8.67 u/L
PHOSPHORUS [1]: 11.93 mg/dL
POTASSIUM [1]: 6.36 MEQ/L
SODIUM [1]: 144.83 MEQ/L
TOTAL BILIRUBIN [1]: 0.17 mg/dL
TOTAL PROTEIN [1]: 6.1 G/DL
URIC ACID [1]: 1.73 mg/dL
ABSOLUTE BASOPHIL [2]: 0 CELLS/uL
ABSOLUTE EOSINOPHIL [2]: 73 CELLS/uL
ABSOLUTE LYMPHOCYTE [2]: 14276.67 CELLS/uL
ABSOLUTE MONOCYTE [2]: 831.33 CELLS/uL
ABSOLUTE SEGMENTED NEUTROPHIL [2]: 1685.67 CELLS/uL
BASOPHIL [2]: 0%
EOSINOPHIL [2]: 0.33%
ERYTHROCYTE COUNT [2]: 4.7 x10E6/uL
HEMATOCRIT [2]: 28.03%
HEMOGLOBIN [2]: 11.03 G/DL
LEUKOCYTE COUNT [2]: 16.87 x10E3/uL
LYMPHOCYTE [2]: 85.33%
MEAN CORPUSCULAR HEMOGLOBIN [2]: 23.5 pg
MEAN CORPUSCULAR HEMOGLOBIN CONCENTRATION [2]: 39.33 G/DL
MEAN CORPUSCULAR VOLUME [2]: 59.67 fL
MONOCYTE [2]: 5%
NEUTROPHIL [2]: 9.33%
NUCLEATED RED BLOOD CELLS [2]: 0 /100WBC
PLATELET COUNT [2]: 907 x10E3/uL
ALANINE AMINOTRANSFERASE [2]: 30 u/L
ALBUMIN [2]: 2.33 G/DL
ALKALINE PHOSPHATASE [2]: 163.67 u/L
ASPARTATE AMINOTRANSFERASE [2]: 53 u/L
BLOOD UREA NITROGEN [2]: 10 mg/dL
CARBON DIOXIDE [2]: 27.67 mmol/L
CHLORIDE [2]: 103.67 MEQ/L
CHOLESTEROL [2]: 107.67 mg/dL
CREATINE PHOSPHOKINASE [2]: 224.33 u/L
CREATININE [2]: 0.21 mg/dL
GLUCOSE [2]: 142.33 mg/dL
LACTATE DEHYDROGENASE [2]: 128 u/L
LIPASE [2]: 11.33 u/L
PHOSPHORUS [2]: 11.57 mg/dL
POTASSIUM [2]: 6.23 MEQ/L
SODIUM [2]: 144.1 MEQ/L
TOTAL BILIRUBIN [2]: 0.13 mg/dL
TOTAL PROTEIN [2]: 4.43 G/DL
URIC ACID [2]: 1.57 mg/dL
ABSOLUTE BASOPHIL [3]: 0 CELLS/uL
ABSOLUTE EOSINOPHIL [3]: 0 CELLS/uL
ABSOLUTE LYMPHOCYTE [3]: 17904 CELLS/uL
ABSOLUTE MONOCYTE [3]: 540 CELLS/uL
ABSOLUTE SEGMENTED NEUTROPHIL [3]: 3956 CELLS/uL
BASOPHIL [3]: 0%
EOSINOPHIL [3]: 0%
ERYTHROCYTE COUNT [3]: 3.63 x10E6/uL
HEMATOCRIT [3]: 21.55%
HEMOGLOBIN [3]: 8.6 G/DL
LEUKOCYTE COUNT [3]: 22.4 x10E3/uL
LYMPHOCYTE [3]: 81%
MEAN CORPUSCULAR HEMOGLOBIN [3]: 23.8 pg
MEAN CORPUSCULAR HEMOGLOBIN CONCENTRATION [3]: 40.05 G/DL
MEAN CORPUSCULAR VOLUME [3]: 59.25 fL
MONOCYTE [3]: 2.5%
NEUTROPHIL [3]: 16.5%
NUCLEATED RED BLOOD CELLS [3]: 2.5 /100WBC
PLATELET COUNT [3]: 1838 x10E3/uL
ALANINE AMINOTRANSFERASE [3]: 30 u/L
ALBUMIN [3]: 2.85 G/DL
ALKALINE PHOSPHATASE [3]: 259 u/L
ASPARTATE AMINOTRANSFERASE [3]: 60.5 u/L
BLOOD UREA NITROGEN [3]: 13 mg/dL
CARBON DIOXIDE [3]: 23.5 mmol/L
CHLORIDE [3]: 104 MEQ/L
CHOLESTEROL [3]: 67 mg/dL
CREATINE PHOSPHOKINASE [3]: 290 u/L
CREATININE [3]: 0.21 mg/dL
GLUCOSE [3]: 136.5 mg/dL
LACTATE DEHYDROGENASE [3]: 87 u/L
LIPASE [3]: 9.5 u/L
PHOSPHORUS [3]: 11.1 mg/dL
POTASSIUM [3]: 6.99 MEQ/L
SODIUM [3]: 141.6 MEQ/L
TOTAL BILIRUBIN [3]: 0.1 mg/dL
TOTAL PROTEIN [3]: 4.95 G/DL
URIC ACID [3]: 1.75 mg/dL
